Source: ChEMBL document CHEMBL4706659, “Design, synthesis and biological evaluation of novel 2,4-diaryl pyrimidine derivatives as selective EGFR inhibitors” (Eur J Med Chem, 2021)

Legend:
PC-9 [1] = experiment: Antiproliferative activity against human PC-9 cells harboring EGFR L858R mutant by MTT assay; type: functional, cell-based
NCI-H1975 [2] = experiment: Antiproliferative activity against human NCI-H1975 cells harboring EGFR T790M/L858R mutant by MTT assay; type: functional, cell-based
NCI-H292 = experiment: Antiproliferative activity against human NCI-H292 cells harboring wild-type EGFR by MTT assay; type: functional, cell-based
[3] = Selectivity ratio of IC50 for antiproliferative activity against human NCI-H292 cells harboring wild-type EGFR to IC50 for antiproliferative activity against human NCI-H1975 cells harboring EGFR T790M/L858R mutant; type: functional
PC-9 [4] = experiment: Antiproliferative activity against human PC-9 cells; type: functional, cell-based
NCI-H1975 [5] = experiment: Antiproliferative activity against human NCI-H1975 cells; type: functional, cell-based
[6] = Antiproliferative activity against human RPC9 cells; type: functional, cell-based
HK-2 = experiment: Cytotoxicity against HK-2 cells assessed as reduction in cell viability by MTT assay; type: cell-based; conditions: Homo sapiens
[7] = Cytotoxicity against HLF cells assessed as reduction in cell viability by MTT assay; type: cell-based; conditions: Homo sapiens
[8] = Cytotoxicity against HEK293-A cells assessed as reduction in cell viability by MTT assay; type: cell-based; conditions: Homo sapiens
NCI-H1975 [9] = experiment: Antitumor activity against human NCI-H1975 cells harboring EGFR T790M/L858R mutant xenografted in nude mouse assessed as tumor volume at 15 mg/kg, po administered once daily for 7 days (reference value: 843 mm3); type: functional; conditions: time 7 day
NCI-H1975 [10] = experiment: Antitumor activity against human NCI-H1975 cells harboring EGFR T790M/L858R mutant xenografted in nude mouse assessed as tumor growth inhibition at 15 mg/kg, po administered once daily for 7 days relative to control; type: functional; conditions: time 7 day
[11] = Antiproliferative activity against human DiFi cells; type: functional, cell-based
[12] = Half life in Sprague-Dawley rat at 10 mg/kg, po administered as single dose; type: ADME, organism-based; conditions: in vivo
[13] = Tmax in Sprague-Dawley rat at 10 mg/kg, po administered as single dose; type: ADME, organism-based; conditions: in vivo
[14] = Cmax in Sprague-Dawley rat at 10 mg/kg, po administered as single dose; type: ADME, organism-based; design: route oral, dose 10 mg/kg; conditions: in vivo
[15] = AUC (0 to t) in Sprague-Dawley rat at 10 mg/kg, po administered as single dose; type: ADME, organism-based; design: dose 10 mg/kg; conditions: in vivo
[16] = AUC (0 to infinity) in Sprague-Dawley rat at 10 mg/kg, po administered as single dose; type: ADME, organism-based; design: time infinity, route oral, dose 10 mg/kg; conditions: in vivo
[17] = MRT in Sprague-Dawley rat at 10 mg/kg, po administered as single dose; type: ADME, organism-based; conditions: in vivo
[18] = Oral bioavailability in Sprague-Dawley rat at 10 mg/kg administered as single dose; type: ADME, organism-based; conditions: in vivo
[19] = Half life in Sprague-Dawley rat at 2 mg/kg, iv administered as single dose; type: ADME, organism-based; conditions: in vivo
[20] = Cmax in Sprague-Dawley rat at 2 mg/kg, iv administered as single dose; type: ADME, organism-based; design: route intravenous, dose 2 mg/kg; conditions: in vivo
[21] = AUC (0 to t) in Sprague-Dawley rat at 2 mg/kg, iv administered as single dose; type: ADME, organism-based; design: dose 2 mg/kg; conditions: in vivo
[22] = AUC (0 to infinity) in Sprague-Dawley rat at 2 mg/kg, iv administered as single dose; type: ADME, organism-based; design: route intravenous, time infinity, dose 2 mg/kg; conditions: in vivo
[23] = Clearance in Sprague-Dawley rat at 2 mg/kg, iv administered as single dose; type: ADME, organism-based; conditions: in vivo
[24] = MRT in Sprague-Dawley rat at 2 mg/kg, iv administered as single dose; type: ADME, organism-based; conditions: in vivo
BT-474 = experiment: Antiproliferative activity against human BT-474 cells; type: functional, cell-based
SK-BR-3 = experiment: Antiproliferative activity against human SK-BR-3 cells; type: functional, cell-based

Row | Structure (SMILES) | IC50 (PC-9 [1]) [nM] | IC50 (NCI-H1975 [2]) [nM] | IC50 (NCI-H292) [nM] | Ratio IC50 [3] | also measured
1 | C=CC(=O)Nc1cc(Nc2nccc(-c3cn(C4CC4)c4ccccc34)n2)c(OC)cc1N(C)CC[S+](C)[O-] (stereo not drawn) | 261 | 411 | 1140 | 2.8 | 
2 | C=CC(=O)Nc1cc(Nc2nccc(-c3cn(C4CC4)c4ccccc34)n2)c(OC)cc1OCCN(C)C | 5 | 8 | 432 | 54 | 
3 | C=CC(=O)Nc1cc(Nc2ncc(Cl)c(-c3cn(C4CC4)c4ccccc34)n2)c(OC)cc1[S+]([O-])CCN(C)C (stereo not drawn) | 5 | 9 | 156 | 17.3 | 
4 | C=CC(=O)Nc1cc(Nc2ncc(Cl)c(-c3cn(C4CC4)c4ccccc34)n2)c(OC)cc1SCCN(C)C | 9 | 8 | 157 | 19.6 | 
5 | C=CC(=O)Nc1cc(Nc2nccc(-c3cn(C4CC4)c4ccccc34)n2)c(OC)cc1N(C)CCO | 64 | 74 | 1690 | 22.9 | 
6 | C=CC(=O)Nc1cc(Nc2nccc(-c3cn(C4CC4)c4ccccc34)n2)c(OC)cc1N1CCSCC1 | 734 | 333 | > 10000 | >30 | 
7 | C=CC(=O)Nc1cccc(Nc2nc(Nc3ccc(N4CCN(C(C)=O)CC4)cc3OC)ncc2C(F)(F)F)c1 [ROCILETINIB] |  |  |  |  | IC50 (PC-9 [4]): 84 nM; IC50 (NCI-H1975 [5]): 23 nM
8 | C=CC(=O)Nc1cccc(Oc2nc(Nc3ccc(N4CCN(C)CC4)cc3OC)ncc2Cl)c1 |  |  |  |  | IC50 (PC-9 [4]): 36 nM; IC50 (NCI-H1975 [5]): 47 nM
9 | C=CC(=O)Nc1cc(Nc2nccc(-c3cn(C4CC4)c4ccccc34)n2)c(OC)cc1N(C)CCSC | 1320 | 1300 | 2630 | 2 | 
10 | C=CC(=O)Nc1cc(Nc2nccc(-c3cn(C4CC4)c4ccccc34)n2)c(OC)cc1OCCC[S+](C)[O-] (stereo not drawn) | 203 | 445 | 3760 | 8.5 | 
11 | C=CC(=O)Nc1cc(Nc2nccc(-c3cn(C4CC4)c4ccccc34)n2)c(OC)cc1SCCN(C)C | 44 | 21 | 674 | 32.1 | 
12 | C=CC(=O)Nc1cc(Nc2nccc(-c3cn(C4CC4)c4ccccc34)n2)c(OC)cc1OCC[S+](C)[O-] (stereo not drawn) | 435 | 544 | 4810 | 8.8 | 
13 | CN(C)C/C=C/C(=O)Nc1cc2c(Nc3ccc(F)c(Cl)c3)ncnc2cc1O[C@H]1CCOC1 [AFATINIB] |  |  |  |  | IC50 (PC-9 [4]): 0.3 nM; IC50 [6]: 164 nM
14 | C=CC(=O)Nc1cc(Nc2nccc(-c3cn(C)c4ccccc34)n2)c(OC)cc1N(C)CCN(C)C [OSIMERTINIB] | […] | […] | 924 |  | IC50 (HK-2): 2720 nM; IC50 [7]: 3350 nM; IC50 [8]: 2250 nM; Activity (NCI-H1975 [9]): 21 mm3; TGI (NCI-H1975 [10]): 97.64%
15 | C#Cc1cccc(Nc2ncnc3cc(OCCOC)c(OCCOC)cc23)c1 [ERLOTINIB] |  |  |  |  | IC50 [11]: 20 nM
16 | C=CC(=O)Nc1cc(Nc2nccc(-c3cn(C)c4ccccc34)n2)c(OC)cc1[S+]([O-])CCN(C)C (stereo not drawn) |  |  |  |  | half-life [12]: 1.43 h; Tmax [13]: 1 h; Cmax [14]: 275 ng/mL; AUC(0-t) [15]: 635 ng·h/mL; AUC(0-inf) [16]: 652 ng·h/mL; MRT [17]: 2.07 h; bioavailability [18]: 31.6%; half-life [19]: 0.62 h; Cmax [20]: 789 ng/mL; AUC(0-t) [21]: 402 ng·h/mL; AUC(0-inf) [22]: 406 ng·h/mL; clearance [23]: 82.2 mL/min/kg; MRT [24]: 0.89 h
17 | C=CC(=O)Nc1cc(Nc2nccc(-c3cn(C4CC4)c4ccccc34)n2)c(OC)cc1OCCCSC | 2320 | 1120 | > 10000 | >8.9 | 
18 | COc1cc2ncnc(Nc3ccc(F)c(Cl)c3)c2cc1NC(=O)/C=C/CN1CCCCC1 [DACOMITINIB ANHYDROUS] |  |  |  |  | IC50 (BT-474): 18 nM; IC50 (SK-BR-3): 15 nM
19 | C=CC(=O)Nc1cc(Nc2nccc(-c3cn(C4CC4)c4ccccc34)n2)c(OC)cc1OCCSC | 648 | 543 | 9770 | 18 | 
